The test system of series [1] is Sprague-Dawley rats. Kind of series: In vivo toxicity study in rats, oral administration (gavage). The settings on record: increasing amounts up to 2 g/kg body weight. An excerpt: (b) Oral Administration: Sprague-Dawley rats weighing approximately 250 g were orally gavaged with increasing amounts of polysulfate polymethylsulfate dextrin dissolved in sterile water up to a dose of 2 g/kg body weight.

In series [2] the test system is Human Immunodeficiency Virus. Kind of series: Anti-HIV testing in cell culture: inhibition of cell-to-cell transmission of HIV measured as p24 protein production. Type of series: cell-based. To be noted: for MEAN P24 value: mean of three tests; for % VIRAL CONCENTRATION: relative to 0.0 μM = 100.0; for P24 value as measurement of HIV concentration: separate efficacy tests (samples 1-3). The method, then:
Testing was performed independently at the NIH using standard testing protocol.

Values joined by “and” are separate entries in the source; they are usually repeats but may differ in a detail not shown here. Identical values can stand only once.

In the case of polysulfate polymethylsulfate dextrin, in series [1], the “toxic effects after oral administration” value was “No toxic effects”. Also, the “MEAN P24 value” in series [2] (0.32 μM) was 664.0 pg/mL; in series [2] (1.0 μM), 371.5 pg/mL; in series [2] (3.2 μM) it was 5.5 pg/mL; in series [2] (10 μM), -6.1 pg/mL; in series [2] (32 μM) it was -8.8 pg/mL; in series [2] (100 μM), -27 pg/mL. The “% VIRAL CONCENTRATION” value was 96.1% in series [2] (0.32 μM); 53.7% in series [2] (1.0 μM); 0.8% in series [2] (3.2 μM); −0.9% in series [2] (10 μM); −1.3% in series [2] (32 μM); −3.9% in series [2] (100 μM). Also, the “P24 value as measurement of HIV concentration” value in series [2] (0.32 μM) is 672.3 pg/mL and 654.6 pg/mL and 665.0 pg/mL; in series [2] (1.0 μM), 407.1 pg/mL and 351.2 pg/mL and 356.1 pg/mL. The IC50 in series [2] (average of three separate tests, p24 production, cell-to-cell transmission of HIV, read-out: calculated 50% inhibition (IC50) / average inhibitory concentration 50%) is 1160 nM.

The values above are taken from US7902174B2, “Antiviral composition” (priority 2009, dated 2011).
